Where “and” joins values, the source holds several entries; their conditions need not be identical. Equal values may be shown once.
These compounds were tested on orthotopic HT-29 human colorectal adenocarcinoma (assay: Growth response of orthotopic HT-29 colon tumors in nude mice). Settings: 75 mg/kg i.v. once per week.
Assay type: in vivo, BALB/c nu/nu mice
Description: (§1) Female BALB/c nu/nu mice (University of Adelaide, Waite Campus, SA, Australia), aged 7-12 weeks, with a body weight range: of 16.58-25.39 g (mean 21.52 g) were used for the study. The mice were divided into 6 Study groups (4 treatment groups and 2 control groups) as follows: • Number of Mice per Group: 10 in Groups 1 to 5 inclusive • 9 in ‘Take-Rate’ Control Group (Group 6)
HT-29 human colorectal adenocarcinoma cells (Passage 4 from working stock VP-Stock 325) were cultured in RPMI1640 cell culture medium, which was supplemented with 10% FBS and penicillin-streptomycin (501 U/mL final concentration). The cells were harvested by trypsinisation, washed twice in HBSS and counted. The cells were then resuspended in HESS and adjusted to a final volume containing 2×10^8 cells/mL. Prior to inoculation, the incision site was liberally swabbed with alcohol and an incision made through the abdominal wall to expose the caecum wall. The needle was introduced through the surface of the caecum wall where 5 μL of cells (1×10^6 cells) were discharged.
A stock solution was prepared weekly and stored at 4° C. Dosing solutions were prepared on each day of administration.
Caecum and tumor wet weight were measured when each were excised post-mortem on the termination day of the study. At the termination of the study, the caecum was excised from all mice in each study group and weighed with the tumors intact. The tumors were then excised from the caecum and weighed.
A two-sample t-test was used to determine the significance in body weight change within a treatment group between Day 0 and the termination day of the study. […] In these groups, a two-sample t-test was used to determine the significance in body weight change within a treatment group between Day 0 and the final treatment day of the study, and between the last treatment day and the termination day of the study.
(§2) A One-Way Analysis of Variance (ANOVA) (All Pairwise Multiple Comparison Procedure and Multiple Comparison versus Control Group) was performed on the caecum weight and tumor weight data at the end of the study.

Row | Structure (SMILES) | weight of the caecum and HT-29 tumors
1 | O=c1[nH]cc(F)c(=O)[nH]1 [5-Fluorouracil, reference compound] | no effect

Same assay, conditions: 5FU 75 mg/kg, individual animals; listed as 5FU

Row | Structure (SMILES) | Caecum Weight | Tumour Weight
2 | O=c1[nH]cc(F)c(=O)[nH]1 [5-Fluorouracil, reference compound] | 0.355 g and 0.199 g and 0.360 g and 0.284 g and 0.421 g and 0.706 g and 0.415 g and 0.327 g and 0.237 g and 0.377 g | 0.245 g and 0.001 g and 0.000 g (3×) and 0.010 g and 0.329 g and 0.130 g and 0.079 g and 0.003 g

Same assay, conditions: 5FU 75 mg/kg, mice surviving to final day

Row | Structure (SMILES) | Average Caecum Weight [g] | Average Tumour Weight [g]
3 | O=c1[nH]cc(F)c(=O)[nH]1 [5-Fluorouracil, reference compound] | 0.391 | 0.069

These compounds were tested on orthotopic Hep3B2.1-7 human hepatic carcinoma (assay: Growth response of orthotopic Hep3B tumors in nude mice). Settings: 5FU 75 mg/kg i.v. Day 0, 7 and 14.
Assay type: in vivo, BALB/c nu/nu mice
Description: as §1, with “10-14” for “7-12”, “19.1-29.94” for “16.58-25.39”, “22.95” for “21.52”, “15” for “9”
Hep3B human hepatic carcinoma cells (Passage 2 from working stock VP-Stock 353) were cultured in RPMI1640 cell culture medium, which was supplemented with 10% FBS and penicillin-streptomycin (501 U/mL final concentration). The cells were harvested by trypsinisation, washed twice in HBSS and counted. The cells were then resuspended in HBSS:Matrigel (1:1, v/v) and adjusted to a final volume containing 1×10^8 cells/mL. Prior to inoculation, the incision site was liberally swabbed with alcohol and an incision made through the abdominal wall to expose the liver. The needle was introduced through the surface of the liver where 10 μL of cells (1×10^6 cells) were discharged. The needle was held in this position for approximately 30 seconds to allow the Matrigel® to polymerize in order to avoid leakage of tumor cells into the abdominal cavity.
Treatment commenced 14 days post-inoculation. On Day 7 of the study (21 days post-inoculation), all mice from the ‘Take-Rate’ control group were culled and the livers visually assessed for the presence of tumors.
A stock solution was prepared weekly and stored at 4° C. Dosing solutions were prepared on each day of administration. […] The compound was administered at doses of 2, 10 and 50 mg/kg.
Liver and tumor wet weight were measured when each were excised post-mortem on the termination day of the study. At the termination of the study, livers were excised from all mice in each study group and weighed. The number of visible tumors, if present, was counted. These tumors were removed from the liver and weighed.
as §2, with “liver” for “the caecum”, “study. […] The same statistical analyses were performed on the data for the tumor-bearing mice in the study.” for “study.”

Row | Structure (SMILES) | No. of Mice with Tumors (out of 10)
4 | O=c1[nH]cc(F)c(=O)[nH]1 [5-Fluorouracil, reference compound] | 4

Same assay, conditions: 5FU 75 mg/kg i.v. Day 0, 7 and 14, tumor-bearing mice

Row | Structure (SMILES) | Average Liver Weight [g] | Average Tumor Weight [g]
5 | O=c1[nH]cc(F)c(=O)[nH]1 [5-Fluorouracil, reference compound] | 1.217 | 0.143

Same assay, conditions: tumor-bearing mice, 75 mg/kg i.v. once per week

Row | Structure (SMILES) | average weight of the tumors vs Vehicle Control
6 | O=c1[nH]cc(F)c(=O)[nH]1 [5-Fluorouracil, reference compound] | significantly different

Same assay, conditions: tumor-bearing mice, 75 mg/kg i.v. once per week; p<0.05

Row | Structure (SMILES) | average weight of the liver vs Vehicle Control
7 | O=c1[nH]cc(F)c(=O)[nH]1 [5-Fluorouracil, reference compound] | significantly different

The compounds below were run on phosphorylated ERK in MDA-MB-231 breast cancer cells (assay: Generation of EC50 data: Western blotting for phosphorylated ERK in EGF-stimulated cells). Settings: EC50 class.
Assay type: cell-based
Description: Effects of compounds in the cell were determined by Western blotting for phosphorylated ERK. MDA-MB-231 breast cancer cells were plated in a 48 well plate at 20,000 cells per well and grown in a 37° humidified CO2 incubator. The following day, the growth media (DMEM+10% fetal bovine serum) was removed and replaced with starve media (DMEM+0.1% fetal bovine serum). Cells were incubated in the starve media for sixteen hours and then treated with a range of compound concentrations for thirty minutes. After incubation with compound, cells were stimulated with 100 ng/ml EGF for five minutes. The cells were then lysed and analyzed by Western blot using a monoclonal antibody raised to phosphorylated ERK. The signal was amplified using a secondary antibody conjugated to a near-IR dye and detected on a Licor Odyssey scanner.

Row | EC50 [nM] | Structure (SMILES)
8 | 2 to 15 | COc1cc(F)c(F)c(Nc2ccc(I)cc2F)c1NS(=O)(=O)C1(C[C@@H](O)CO)CC1 [Eg. 99 (R isomer), N—(R)-(3,4-difluoro-2-(2-fluoro-4-iodophenylamino)-6-methoxyphenyl)-1-(2,3-dihydroxypropyl)cyclopropane-1-sulfonamide]
9 | < 2 | COc1cc(F)c(F)c(Nc2ccc(I)cc2F)c1NS(=O)(=O)C1(CC(O)CO)CC1 (racemic) [Eg. 97 (Racemic), N-(3,4-difluoro-2-(2-fluoro-4-iodophenylamino)-6-methoxyphenyl)-1-(2,3-dihydroxypropyl)cyclopropane-1-sulfonamide]

Row | Structure (SMILES) | EC50 [nM]
10 | COc1cc(F)c(F)c(Nc2ccc(I)cc2F)c1NS(=O)(=O)C1(C[C@H](O)CO)CC1 [Eg. 98 (S isomer)] | < 2

Same assay, conditions: Homo sapiens; EC50 classes per legend (pERK, MDA-MB-231 cells); classes D and F also cite IC50

Row | EC50 [nM] | Structure (SMILES)
11 | 15 to 100 | CC(C)(C)S(=O)(=O)Nc1ccc(F)c(F)c1Nc1ccc(I)cc1F [Example 1009]
12 | 2 to 15 | CC(C)S(=O)(=O)Nc1ccc(F)c(F)c1Nc1ccc(I)cc1F [Example 1002]
13 | 15 to 100 | O=S(=O)(Nc1c(F)cc(F)c(F)c1Nc1ccc(I)cc1F)C1CC1 [Example 1004]
14 | < 2 | COc1cc(F)c(F)c(Nc2ccc(I)cc2F)c1NS(=O)(=O)C1(CC(CO)CO)CC1 [Example 1028]
15 | < 2 | COc1cc(F)c(F)c(Nc2ccc(I)cc2F)c1NS(=O)(=O)C1(CC(O)CO)CC1 (racemic) [Example 1019]
16 | 15 to 100 | O=S(=O)(Nc1ccc(F)c(F)c1Nc1ccc(I)cc1F)C1CCCCC1 [Example 1008]
17 | < 2 | O=S(=O)(Nc1ccc(F)c(F)c1Nc1ccc(I)cc1F)C1(CCO)CC1 [Example 1027]
18 | < 2 | O=S(=O)(Nc1c(F)cc(F)c(F)c1Nc1ccc(I)cc1F)C1(CC(O)CO)CC1 (racemic) [Example 1020]
19 | 15 to 100 | O=S(=O)(Nc1ccc(F)c(F)c1Nc1ccc(I)cc1F)c1ccco1 [Example 1006]
20 | 15 to 100 | Cc1ccc(S(=O)(=O)Nc2ccc(F)c(F)c2Nc2ccc(I)cc2F)s1 [Example 1011]
21 | 2 to 15 | COc1cc(F)c(F)c(Nc2ccc(I)cc2F)c1NS(=O)(=O)C1CC1 [Example 1013]
22 | < 2 | O=S(=O)(Nc1ccc(F)c(F)c1Nc1ccc(I)cc1F)C1(CC(O)CO)CC1 (racemic) [Example 1018]
23 | 2 to 15 | O=S(=O)(Nc1c(F)cc(F)c(F)c1Nc1ccc(I)cc1F)C1(C[C@@H](O)CO)CC1 [Example 1024]
24 | 2 to 15 | COc1cc(F)c(F)c(Nc2ccc(I)cc2F)c1NS(=O)(=O)C1CCC1 [Example 1025]
25 | 15 to 100 | CCc1cc(F)c(F)c(Nc2ccc(I)cc2F)c1NS(=O)(=O)C1(CC(O)CO)CC1 (stereo not drawn) [Example 1029]
26 | 15 to 100 | O=S(=O)(Nc1ccc(F)c(F)c1Nc1ccc(I)cc1F)c1ccccc1 [Example 1014]
27 | > 100 | O=S(=O)(Nc1ccc(F)c(F)c1Nc1ccc(I)cc1F)c1ccccc1F [Example 1015]
28 | 15 to 100 | CCCCS(=O)(=O)Nc1ccc(F)c(F)c1Nc1ccc(I)cc1F [Example 1003]
29 | < 2 | CS(=O)(=O)Nc1ccc(F)c(F)c1Nc1ccc(I)cc1F [Example 1000]
30 | 2 to 15 | O=S(=O)(Nc1c(F)cc(F)c(F)c1Nc1ccc(I)cc1F)C1(C[C@H](O)CO)CC1 [Example 1023]
31 | < 2 | O=S(=O)(Nc1ccc(F)c(F)c1Nc1ccc(I)cc1F)C1CC1 [Example 1001]
32 | < 2 | COc1cc(F)c(F)c(Nc2ccc(I)cc2F)c1NS(=O)(=O)C1(CCO)CC1 [Example 1026]
33 | 2 to 15 | CC1(S(=O)(=O)Nc2ccc(F)c(F)c2Nc2ccc(I)cc2F)CC1 [Example 1012]
34 | 15 to 100 | COCCOc1cc(F)c(F)c(Nc2ccc(I)cc2F)c1NS(=O)(=O)C1(CC(O)CO)CC1 (stereo not drawn) [Example 1030]
35 | 15 to 100 | O=S(=O)(Nc1ccc(F)c(F)c1Nc1ccc(I)cc1F)C1CCCC1 [Example 1007]
36 | < 2 | COc1cc(F)c(F)c(Nc2ccc(C)cc2C)c1NS(C)(=O)=O [Example 1010]
37 | 2 to 15 | Cc1cc(I)ccc1Nc1c(NS(=O)(=O)C2CC2)ccc(F)c1F [Example 1017]
38 | 2 to 15 | COc1cc(F)c(F)c(Nc2ccc(I)cc2F)c1NS(=O)(=O)C1(C[C@@H](O)CO)CC1 [Example 1022]
39 | 15 to 100 | O=S(=O)(Nc1ccc(F)c(F)c1Nc1ccc(I)cc1F)c1ccsc1 [Example 1016]
40 | 15 to 100 | O=S(=O)(Nc1ccc(F)c(F)c1Nc1ccc(I)cc1F)c1cccs1 [Example 1005]

Row | Structure (SMILES) | EC50 [nM]
41 | COc1cc(F)c(F)c(Nc2ccc(I)cc2F)c1NS(=O)(=O)C1(C[C@H](O)CO)CC1 [Example 1021] | < 2

What follows are compounds tested on MDA pERK (assay: MDA pERK ELISA). Settings: not given.
Assay type: cell-based

Row | EC50 [nM] | Structure (SMILES)
42 | > 200 | O=S(=O)(Nc1ccc(F)c(F)c1Nc1ccc(-c2ccncc2)cc1F)C1CC1 [Example 0497688]
43 | 15 to 100 | O=S(=O)(Nc1ccc(F)c(F)c1Nc1ccc(I)cc1F)C1CCNCC1 [Example 0561599]
44 | > 200 | CC(=O)c1cccc(-c2ccc(Nc3c(NS(=O)(=O)C4CC4)ccc(F)c3F)c(F)c2)c1 [Example 0499266]
45 | > 200 | Cn1cc(-c2ccc(Nc3c(NS(=O)(=O)C4CC4)ccc(F)c3F)c(F)c2)cn1 [Example 0497620]
46 | 15 to 100 | CN(C)CCNCCS(=O)(=O)Nc1ccc(F)c(F)c1Nc1ccc(I)cc1F [Example 0621016]
47 | 100 to 200 | CCN(C)CCS(=O)(=O)Nc1ccc(F)c(F)c1Nc1ccc(I)cc1F [Example 0621029]
48 | > 200 | O=S(=O)(Nc1ccc(F)c(F)c1Nc1ccc(-c2cn[nH]c2)cc1F)C1CC1 [Example 0497618]
49 | 15 to 100 | COC(=O)c1ccc(S(=O)(=O)Nc2ccc(F)c(F)c2Nc2ccc(I)cc2F)n1C [Example 0561608]
50 | > 200 | COC(=O)c1sccc1S(=O)(=O)Nc1ccc(F)c(F)c1Nc1ccc(I)cc1F [Example 0620926]
51 | 15 to 100 | CNCCS(=O)(=O)Nc1ccc(F)c(F)c1Nc1ccc(I)cc1F [Example 0621002]

— US8648116B2, “Derivatives of N-(arylamino) sulfonamides including polymorphs as inhibitors of MEK as well as compositions, methods of use and methods for preparing the same” (Ardea Biosciences, Inc., priority 2005, dated 2014)
